Like-named read-outs stand apart in the source and are kept apart here.
What was measured:
Type in all cases: cell-based
[1] = system: RKO colon cancer cells; assay: CellTiter-Glo luminescent cell viability assay, RKO 96-well drug screening plate; conditions: 72 hours
Experimental: (§1) In example 1, CELLTITER-GLO was used to test desogestrel for colon cancer RKO cells, LoVo cells, and MDA-MB-468 ductal breast cancer cells were handled as described above, and RKO 96-well cell culture plates, 96-well LoVo cell culture plates, and 96-well MDA-MB-468 cell culture plates were obtained, respectively. The complete medium for RKO cells was DMEM (a live product), Cat #11995081, with a cells/well density of 12000. a) DMSO was used to dilute the analyte desogestrel to 20 mM for use. b) 79 μL of the 20 mM analyte prepared in step a) was added to the first well in the first row of the dilution plate, and then 54 μL of DMSO solution was added to the second through ninth wells of the first row. 25 μL of solution was aspirated from the first to the second well, and after mixing well 25 μL of solution was aspirated from the second to the third well, and this was repeated until the 9th well in order to ensure that 3.16 dilution of the medication would be carried out one-by-one. b) 95 μl of cell-specific complete medium was added to the working plate, each medication to 9 wells. […] The final concentrations (μM) of the analyte drug in wells 2-10 in FIG. 1 are, in order: 100, 31.64557, 10.01442, 3.16912, 1.002886, 0.317369, 0.100433, 0.031783, 0.010058; a) Before testing, the RKO 96-well drug screening plate and the LoVo 96-well drug screen plate described in 3 above were stabilized to room temperature for 20-30 minutes. c) 100 μl of CellTiter-Glo reagent (prepared as described in 1 above) was added to all drug screening plates and mixed evenly. d) It was thoroughly oscillated in a 96-well microplate oscillator for 2 minutes to allow the cells to undergo full lysis. e) It was stored away from light at room temperature for 15 minutes before carrying out luminescent signal detection to ensure signal stability. f) An EnSpire multi-function plate reader was used at 570 nm to read the luminescent signals.

[2] = system: BT-474 ductal breast cancer cells; assay: CellTiter-Glo luminescent cell viability assay, BT-474 cells (same method); conditions: Homo sapiens, Table 1
Text: Ductal breast cancer cells BT-474, complete medium basis of RPMI-1640 (a live product), Cat #A1049101, with a cells/well density of 4,000. The same method was used to test desogestrel's action on the IC50 value of BT-474 ductal breast cancer cells; results are shown in Table 1.

[3] = system: ER-negative Ah receptor-positive MDA-MB-468 breast cancer cells; assay: CellTiter-Glo luminescent cell viability assay, MDA-MB-468 96-well drug screening plate; conditions: Homo sapiens, 72 hours
Experimental: as §1, with “RKO” for “In example 1, CELLTITER-GLO was used to test desogestrel for colon cancer RKO”, “for ER-negative Ah receptor-positive MDA-MB-468 breast cancer” for “for RKO”, “was Leibovitz's L-15” for “was DMEM”, “Cat #11415064,” for “Cat #11995081,”, “0.010058;” for “0.010058; a) Before testing, the RKO 96-well drug screening plate and the LoVo 96-well drug screen plate described in 3 above were stabilized to room temperature for 20-30 minutes.”

[4] = system: LoVo colon cancer cells; assay: CellTiter-Glo luminescent cell viability assay, LoVo 96-well drug screening plate; conditions: Homo sapiens, 72 hours
Experimental: as §1, with “for LoVo” for “for RKO”, “was MEM” for “was DMEM”, “Cat #10370021,” for “Cat #11995081,”, “of 8000.” for “of 12000.”

C#C[C@]1(O)CC[C@H]2[C@@H]3CCC4=CCCC[C@@H]4[C@H]3C(=C)C[C@@]21CC [desogestrel]
EC50 ([1]; FIG. 2, colon cancer, RKO 96-well drug screening plate): 136 µM | IC50 ([1]; FIG. 2, colon cancer, RKO 96-well drug screening plate, read-out: IC50): 32.1 µM | IC50 ([1]; Homo sapiens, RKO cells, Table 1, read-out: IC50 value): 26.2 µM | IC50 [2]: ≥ 100 µM | EC50 ([3]; FIG. 4, ER-negative Ah receptor-positive breast cancer, MDA-MB-468 plate): 11.3 µM | IC50 ([3]; FIG. 4, ER-negative Ah receptor-positive breast cancer, MDA-MB-468 plate, read-out: IC50): 12.5 µM | IC50 ([3]; MDA-MB-468 cells, Table 1, read-out: IC50 value): 12.5 µM | EC50 ([4]; FIG. 3, colon cancer, LoVo 96-well drug screening plate): 26.3 µM | IC50 ([4]; FIG. 3, colon cancer, LoVo 96-well drug screening plate, read-out: IC50): 26.2 µM | IC50 ([4]; LoVo cells, Table 1, read-out: IC50 value): 32.1 µM
